{
  "source": "paper PMC6994103",
  "about": "(PLoS Neglected Tropical Diseases, 2020)",
  "key": {"[1]": {"system": "T. cruzi epimastigotes Dm28c strain", "assay": "Trypanocidal activity in epimastigotes, Dm28c strain", "type": "cell-based, Trypanosoma cruzi", "procedure": "(§1) VERO cells (5 x10^4 per well) were infected with trypomastigotes (2.5 ×10^5 per well) for 4 h. After this period, the infected cells were washed twice with phosphate-buffered saline (PBS), the MEM medium was replaced, and the cells were kept in culture at 37°C, 5% CO2. In order to obtain intracellular amastigotes, the cells were lysed 4 days after infection using a cell scraper, collected, washed twice with PBS (or MEM) and counted using a hemocytometer. Trypomastigotes were obtained from infected VERO cells as previously described.\nEpimastigotes of T. cruzi were cultured as described above, in 24-wells plate at a start density of 0.5 x10^7 cells/mL in BHT medium. Parasites´ growth was evaluated at different concentrations of BZL, CV and CV structural analogues, and parasite proliferation was determined after 48 h. Trypanocidal activity in trypomastigotes and amastigotes was performed using 1 x10^6 cells/mL in 96-well plates and incubating at 37°C for 24 h in the presence of the corresponding drug. Growth was determined by counting in a Neubauer chamber and viability assays by using “Cell Titer 96 Aqueous One Solution Cell Proliferation Assay (MTS)” (Promega, Madison, WI, USA) according to the manufacturer’s instructions. Amastigotes were fixed with methanol, stained and mounted with Vectashield with DAPI (Vector Laboratories, Burlingame, CA, USA), and then the non-lysed cells were counted by using fluorescence microscopy."}, "[2]": {"system": "T. cruzi epimastigotes CL Brener strain", "assay": "Trypanocidal activity in epimastigotes, CL Brener strain", "type": "cell-based, Trypanosoma cruzi", "settings": "Y vs CL Brener", "procedure": "as §1\nEpimastigotes of T. cruzi were cultured as described above, in 24-wells plate at a start density of 0.5 x10^7 cells/mL in BHT medium. Parasites´ growth was evaluated at different concentrations of BZL, CV and CV structural analogues, and parasite proliferation was determined after 48 h. […] Growth was determined by counting in a Neubauer chamber and viability assays by using “Cell Titer 96 Aqueous One Solution Cell Proliferation Assay (MTS)” (Promega, Madison, WI, USA) according to the manufacturer’s instructions. Amastigotes were fixed with methanol, stained and mounted with Vectashield with DAPI (Vector Laboratories, Burlingame, CA, USA), and then the non-lysed cells were counted by using fluorescence microscopy."}, "[3]": {"assay": "Toxicity assay in VERO cells (gentian violet staining)", "type": "cell-based, African green monkey", "settings": "African green monkey, VERO cells, 24 h, read-out: viability of the VERO cells, percentage of untreated cells", "procedure": "(§2) VERO cells (African green monkey Kidney, ATCC CCL-81) were cultured in MEM medium supplemented with 10% heat inactivated FCS, 0.15% (w/v) NaHCO3, 100 U/mL penicillin and 100 U/mL streptomycin at 37°C in 5% CO2.\n(§3) The toxicity of the compounds was determined in VERO cells by the gentian violet staining assay. Briefly, the cells (1 x10^4 cells/well) were incubated in 96-well plates with the indicated compound or dimethyl sulfoxide (DMSO) as negative control and maintained at 37° C for 24 h. Then the cells were fixed for 15 min, and stained with 0.5% gentian violet. The absorbance was measured at 570 nm. The selectivity index (SI) was calculated for each CV analogue as the ratio between the IC50 obtained in mammalian cells and the IC50 in trypomastigotes. For the combined treatment, the results were presented as percentage of untreated cells."}, "[4]": {"system": "VERO cells", "assay": "Toxicity assay in VERO cells (gentian violet staining)", "type": "cell-based, African green monkey", "settings": "IC50 in VERO cells / IC50 in trypomastigotes (Y strain)", "procedure": "as §2, §3"}, "[5]": {"system": "T. cruzi epimastigotes Y strain", "assay": "Synergism BZL with LTD-CPH-CFZ in epimastigotes, Y strain (CompuSyn)", "type": "cell-based, Trypanosoma cruzi", "procedure": "Parasites´ growth was evaluated at different concentrations of BZL, CV and CV structural analogues, and parasite proliferation was determined after 48 h. […] Growth was determined by counting in a Neubauer chamber and viability assays by using “Cell Titer 96 Aqueous One Solution Cell Proliferation Assay (MTS)” (Promega, Madison, WI, USA) according to the manufacturer’s instructions. Amastigotes were fixed with methanol, stained and mounted with Vectashield with DAPI (Vector Laboratories, Burlingame, CA, USA), and then the non-lysed cells were counted by using fluorescence microscopy. Calculations were performed using CompuSyn software (http://combosyn.com) which is based on the median-effect equation [48] and its extension, the combination index."}},
  "note": "Where “and” joins values, the source holds several entries; their conditions need not be identical. Identical values can stand only once.",
  "data": [
    {"smiles": "O=C(Cn1ccnc1[N+](=O)[O-])NCc1ccccc1", "note": "[Benznidazole]", "values": [
      {"measurement": "fold more resistant Dm28c vs CL Brener epimastigotes", "setting": "[1]; Dm28c vs CL Brener", "value": 1.2, "unit": "fold"},
      {"measurement": "fold more sensitive Y vs Dm28c epimastigotes", "setting": "[1]; Y vs Dm28c", "value": 1.6, "unit": "fold"},
      {"measurement": "fold more sensitive Y vs CL Brener epimastigotes", "setting": "[2]", "value": 1.3, "unit": "fold"},
      {"measurement": "viability at 24 h, 5 µM", "setting": "[3]; BZL 5.0 µM + LTD-CPH-CFZ 0 µM", "value": 96.6, "unit": "%"},
      {"measurement": "viability at 24 h, 10 µM", "setting": "[3]; BZL 10.0 µM + LTD-CPH-CFZ 0 µM", "value": 97.5, "unit": "%"},
      {"measurement": "viability at 24 h, 50 µM", "setting": "[3]; BZL 50.0 µM + LTD-CPH-CFZ 0 µM", "value": 95.7, "unit": "%"},
      {"measurement": "viability at 24 h, 100 µM", "setting": "[3]; BZL 100.0 µM + LTD-CPH-CFZ 0 µM", "value": 92.9, "unit": "%"},
      {"measurement": "Selectivity Index", "setting": "[4]", "value": ">67"},
      {"measurement": "DRI BZL", "setting": "[5]; BZL 0.10 µM + LTD-CPH-CFZ 3.40 µM (1/25 IC50)", "value": "16.63 ± 2.78"},
      {"measurement": "DRI BZL", "setting": "[5]; BZL 0.10 µM + LTD-CPH-CFZ 8.50 µM (1/10 IC50)", "value": "73.67 ± 4.95"},
      {"measurement": "DRI BZL", "setting": "[5]; BZL 0.10 µM + LTD-CPH-CFZ 17.00 µM (1/5 IC50)", "value": "374.17 ± 32.50"},
      {"measurement": "DRI BZL", "setting": "[5]; BZL 0.10 µM + LTD-CPH-CFZ 42.50 µM (1/2 IC50)", "value": "923.66 ± 175.14"},
      {"measurement": "DRI BZL", "setting": "[5]; BZL 1.00 µM + LTD-CPH-CFZ 3.40 µM (1/25 IC50)", "value": "5.12 ± 0.06"},
      {"measurement": "DRI BZL", "setting": "[5]; BZL 1.00 µM + LTD-CPH-CFZ 8.50 µM (1/10 IC50)", "value": "13.27 ± 2.61"},
      {"measurement": "DRI BZL", "setting": "[5]; BZL 1.00 µM + LTD-CPH-CFZ 17.00 µM (1/5 IC50), listed as BZL", "value": "54 and 53.83 ± 6.79"},
      {"measurement": "DRI BZL", "setting": "[5]; BZL 1.00 µM + LTD-CPH-CFZ 42.50 µM (1/2 IC50)", "value": "157.01 ± 24.63"},
      {"measurement": "DRI BZL", "setting": "[5]; BZL 5.00 µM + LTD-CPH-CFZ 3.40 µM (1/25 IC50)", "value": "2.45 ± 0.40"},
      {"measurement": "DRI BZL", "setting": "[5]; BZL 5.00 µM + LTD-CPH-CFZ 8.50 µM (1/10 IC50)", "value": "5.48 ± 0.48"},
      {"measurement": "DRI BZL", "setting": "[5]; BZL 5.00 µM + LTD-CPH-CFZ 17.00 µM (1/5 IC50)", "value": "10.31 ± 1.72"},
      {"measurement": "DRI BZL", "setting": "[5]; BZL 5.00 µM + LTD-CPH-CFZ 42.50 µM (1/2 IC50)", "value": "63.09 ± 8.25"},
      {"measurement": "DRI BZL", "setting": "[5]; BZL 10.00 µM + LTD-CPH-CFZ 3.40 µM (1/25 IC50)", "value": "3.89 ± 0.11"},
      {"measurement": "DRI BZL", "setting": "[5]; BZL 10.00 µM + LTD-CPH-CFZ 8.50 µM (1/10 IC50)", "value": "5.45 ± 0.19"},
      {"measurement": "DRI BZL", "setting": "[5]; BZL 10.00 µM + LTD-CPH-CFZ 17.00 µM (1/5 IC50)", "value": "10.20 ± 0.87"},
      {"measurement": "DRI BZL", "setting": "[5]; BZL 10.00 µM + LTD-CPH-CFZ 42.50 µM (1/2 IC50)", "value": "45.77 ± 3.03"},
      {"measurement": "DRI BZL", "setting": "[5]; BZL 20.00 µM + LTD-CPH-CFZ 3.40 µM (1/25 IC50)", "value": "5.88 ± 0.56"},
      {"measurement": "DRI BZL", "setting": "[5]; BZL 20.00 µM + LTD-CPH-CFZ 8.50 µM (1/10 IC50)", "value": "7.44 ± 0.23"},
      {"measurement": "DRI BZL", "setting": "[5]; BZL 20.00 µM + LTD-CPH-CFZ 17.00 µM (1/5 IC50)", "value": "10.94 ± 1.56"},
      {"measurement": "DRI BZL", "setting": "[5]; BZL 20.00 µM + LTD-CPH-CFZ 42.50 µM (1/2 IC50)", "value": "68.51 ± 13.29"},
      {"measurement": "Dose BZL alone", "setting": "[5]; same effect (Fa 0.112) as BZL 0.10 µM + LTD-CPH-CFZ 3.40 µM", "value": "1.66 ± 0.28", "unit": "µM"},
      {"measurement": "Dose BZL alone", "setting": "[5]; same effect (Fa 0.257) as BZL 1.00 µM + LTD-CPH-CFZ 3.40 µM", "value": "5.12 ± 0.06", "unit": "µM"},
      {"measurement": "Dose BZL alone", "setting": "[5]; same effect (Fa 0.324) as BZL 0.10 µM + LTD-CPH-CFZ 8.50 µM", "value": "7.37 ± 0.49", "unit": "µM"},
      {"measurement": "Dose BZL alone", "setting": "[5]; same effect (Fa 0.430) as BZL 5.00 µM + LTD-CPH-CFZ 3.40 µM", "value": "12.27 ± 2.01", "unit": "µM"},
      {"measurement": "Dose BZL alone", "setting": "[5]; same effect (Fa 0.447) as BZL 1.00 µM + LTD-CPH-CFZ 8.50 µM", "value": "13.27 ± 2.61", "unit": "µM"},
      {"measurement": "Dose BZL alone", "setting": "[5]; same effect (Fa 0.609) as BZL 5.00 µM + LTD-CPH-CFZ 8.50 µM", "value": "27.38 ± 2.41", "unit": "µM"},
      {"measurement": "Dose BZL alone", "setting": "[5]; same effect (Fa 0.673) as BZL 0.10 µM + LTD-CPH-CFZ 17.00 µM", "value": "37.42 ± 3.25", "unit": "µM"},
      {"measurement": "Dose BZL alone", "setting": "[5]; same effect (Fa 0.682) as BZL 10.00 µM + LTD-CPH-CFZ 3.40 µM", "value": "38.95 ± 1.06", "unit": "µM"},
      {"measurement": "Dose BZL alone", "setting": "[5]; same effect (Fa 0.732) as BZL 5.00 µM + LTD-CPH-CFZ 17.00 µM", "value": "51.57 ± 8.60", "unit": "µM"},
      {"measurement": "Dose BZL alone", "setting": "[5]; same effect (Fa 0.740) as BZL 1.00 µM + LTD-CPH-CFZ 17.00 µM", "value": "53.83 ± 6.79", "unit": "µM"},
      {"measurement": "Dose BZL alone", "setting": "[5]; same effect (Fa 0.743) as BZL 10.00 µM + LTD-CPH-CFZ 8.50 µM", "value": "54.45 ± 1.86", "unit": "µM"},
      {"measurement": "Dose BZL alone", "setting": "[5]; same effect (Fa 0.821) as BZL 0.10 µM + LTD-CPH-CFZ 42.50 µM", "value": "92.37 ± 17.51", "unit": "µM"}
    ]}
  ]
}
